Tests used:
[1] = test system: large (Lg) crabgrass; assay: Test C preemergence; format: in vivo, Digitaria sanguinalis; conditions: for Crabgrass, Large plant response rating: preemergence; for Plant response rating, Crabgrass, Large: Preemergence, 31 g ai/ha, scale 0 to 100, 0 no effect, 100 complete control
Summary of the method: (§1)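 Injury was assessed visually against controls 13 to 15 days after application, with 0 meaning no effect and 100 full control; missing entries are shown as a dash. Preemergence sprays hit seeded loam–sand soil, postemergence sprays hit 1- to 4-leaf plants.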

[2] = test system: large (Lg) crabgrass; assay: Test A preemergence; format: in vivo, Digitaria sanguinalis; conditions: for Crabgrass, Large plant response rating: 500 g ai/ha, approx. 10 days
Summary of the method: (§2)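 Visual injury scored 0–100 (100 = complete control) against untreated controls about 10 days after treatment in a greenhouse. Test chemicals, formulated with surfactant in non-phytotoxic solvent, were sprayed on soil preemergence or on 2-10 cm, one- to two-leaf plants postemergence.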

[3] = test system: ragweed; assay: Test C postemergence; format: in vivo, Ambrosia elatior; conditions: for Plant response rating, Ragweed: scale 0 to 100 (0 no effect, 100 complete control)
Summary of the method: as §1

[4] = test system: corn; assay: Test A preemergence; format: in vivo, Zea mays; conditions: for Corn plant response rating: 500 g ai/ha, approx. 10 days
Summary of the method: as §2

[5] = test system: wild oat; assay: Test C postemergence; format: in vivo, Avena fatua; conditions: for Plant response rating, Oat, Wild: scale 0 to 100 (0 no effect, 100 complete control)
Summary of the method: as §1

[6] = test system: wheat, winter; assay: Test C postemergence; format: in vivo, Triticum aestivum; conditions: for Plant response rating, Wheat: scale 0 to 100 (0 no effect, 100 complete control)
Summary of the method: as §1

[7] = test system: rice; assay: Test B flooded paddy test; format: in vivo, Oryza sativa; conditions: Flood, 250 g ai/ha; 0 to 100 scale where 0 is no effect and 100 is complete control
Summary of the method: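 Scores from 0 (no effect) to 100 (complete control) are visual comparisons with controls, taken 13 to 15 days after compound was applied into floodwater 3 cm deep around 2-leaf plants.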

[8] = test system: johnsongrass; assay: Test C preemergence; format: in vivo, Sorghum halepense; conditions: for Johnsongrass plant response rating: preemergence; for Plant response rating, Johnsongrass: Preemergence, 31 g ai/ha, scale 0 to 100, 0 no effect, 100 complete control
Summary of the method: as §1

[9] = test system: kochia; assay: Test C postemergence; format: in vivo, Kochia scoparia; conditions: for Plant response rating, Kochia / Kochia plant response rating: scale 0 to 100 (0 no effect, 100 complete control)
Summary of the method: as §1

[10] = test system: lambsquarters; assay: Test C preemergence; format: in vivo, Chenopodium album; conditions: for Lambsquarters plant response rating: preemergence; for Plant response rating, Lambsquarters: Preemergence, 31 g ai/ha, scale 0 to 100, 0 no effect, 100 complete control
Summary of the method: as §1

[11] = 62 g ai/ha, scale 0 (no effect) to 100 (complete control)
[12] = 125 g ai/ha, scale 0 (no effect) to 100 (complete control)
[13] = 250 g ai/ha, scale 0 (no effect) to 100 (complete control)
[14] = 125 g ai/ha, 0 to 100 scale where 0 is no effect and 100 is complete control
[15] = 0 to 100 scale, 0 no effect, 100 complete control
[16] = Postemergence, 31 g ai/ha, 13 to 15 days
[17] = 16 g ai/ha, scale 0 to 100 (0 no effect, 100 complete control)
[18] = 16 g ai/ha, postemergence, visual rating, 13 to 15 days
[19] = 125 g ai/ha, postemergence, visual rating
[20] = 1000 g ai/ha, 0 to 100 scale, 0 no effect, 100 complete control
[21] = 16 g ai/ha, postemergence, 0 is no effect, 100 is complete control

SMILES: N#Cc1cccc(Oc2ncc(F)cn2)c1-n1cc(Cl)cn1 [Compound 73]
- Crabgrass, Large plant response rating [1, 11]: 100
- Crabgrass, Large plant response rating [1, 12]: 100
- Crabgrass, Large plant response rating [1, 13]: 100
- Plant response rating, Crabgrass, Large [1]: 100
- Plant response rating, Crabgrass, Large [2, 14]: 100
- Crabgrass, Large plant response rating [2, 15]: 100
- Plant response rating (0 to 100), Ragweed ([3]; 125 g ai/ha, postemergence): 50
- Plant response rating (0 to 100), Ragweed ([3]; 250 g ai/ha, postemergence): 65
- Plant response rating, Ragweed [3, 16]: 30
- Plant response rating, Ragweed ([3]; Postemergence, 62 g ai/ha): 35
- Plant response rating, Corn [4, 14]: 20
- Corn plant response rating [4, 15]: 70
- Plant response rating (0 to 100), Oat, Wild ([5]; 125 g ai/ha, postemergence): 10
- Plant response rating (0 to 100), Oat, Wild ([5]; 250 g ai/ha, postemergence): 15
- Plant response rating, Oat, Wild [5, 16]: 5
- Plant response rating, Oat, Wild ([5]; Postemergence, 62 g ai/ha): 5
- Plant response rating (0 to 100), Wheat ([6]; 125 g ai/ha, postemergence): 0
- Plant response rating (0 to 100), Wheat ([6]; 250 g ai/ha, postemergence): 5
- Plant response rating, Wheat [6, 16]: 0
- Plant response rating, Wheat ([6]; Postemergence, 62 g ai/ha): 0
- Plant response rating, Rice [7]: 0
- Johnsongrass plant response rating [8, 11]: 35
- Johnsongrass plant response rating [8, 12]: 75
- Johnsongrass plant response rating [8, 13]: 98
- Plant response rating, Johnsongrass [8]: 10
- Plant response rating (0 to 100), Kochia ([9]; 125 g ai/ha, postemergence): 90
- Plant response rating (0 to 100), Kochia ([9]; 250 g ai/ha, postemergence): 90
- Plant response rating, Kochia [9, 16]: 80
- Plant response rating, Kochia ([9]; Postemergence, 62 g ai/ha): 85
- Lambsquarters plant response rating [10, 11]: 98
- Lambsquarters plant response rating [10, 12]: 98
- Lambsquarters plant response rating [10, 13]: 98
- Plant response rating, Lambsquarters [10]: 60

SMILES: CCOc1cnn(-c2c(C#N)cccc2Oc2ncc(Cl)cn2)c1 [Compound 92]
- Crabgrass, Large plant response rating [1, 17]: 90
- Crabgrass, Large plant response rating [1, 11]: 100
- Crabgrass, Large plant response rating [1, 12]: 100
- Plant response rating, Crabgrass, Large [1]: 100
- Plant response rating, Crabgrass, Large [2, 14]: 100
- Crabgrass, Large plant response rating [2, 15]: 100
- Plant response rating (0 to 100), Ragweed ([3]; 125 g ai/ha, postemergence): 55
- Plant response rating, Ragweed [3, 16]: 40
- Plant response rating, Ragweed ([3]; Postemergence, 62 g ai/ha): 50
- Plant response rating, Corn [4, 14]: 10
- Corn plant response rating [4, 15]: 40
- Plant response rating (0 to 100), Oat, Wild ([5]; 125 g ai/ha, postemergence): 15
- Plant response rating, Oat, Wild [5, 16]: 5
- Plant response rating, Oat, Wild ([5]; Postemergence, 62 g ai/ha): 10
- Plant response rating (0 to 100), Wheat ([6]; 125 g ai/ha, postemergence): 5
- Plant response rating, Wheat [6, 16]: 0
- Plant response rating, Wheat ([6]; Postemergence, 62 g ai/ha): 0
- Plant response rating, Rice [7]: 20
- Johnsongrass plant response rating [8, 17]: 0
- Johnsongrass plant response rating [8, 11]: 70
- Johnsongrass plant response rating [8, 12]: 85
- Plant response rating, Johnsongrass [8]: 5
- Kochia plant response rating [9, 18]: 40
- Plant response rating (0 to 100), Kochia ([9]; 125 g ai/ha, postemergence): 85
- Plant response rating, Kochia [9, 16]: 60
- Plant response rating, Kochia ([9]; Postemergence, 62 g ai/ha): 80
- Lambsquarters plant response rating [10, 17]: 65
- Lambsquarters plant response rating [10, 11]: 100
- Lambsquarters plant response rating [10, 12]: 98
- Plant response rating, Lambsquarters [10]: 98

SMILES: N#Cc1cnn(-c2c(C#N)cccc2Oc2ncc(F)cn2)c1 [Compound 111]
- Crabgrass, Large plant response rating [1, 17]: 98
- Crabgrass, Large plant response rating [1, 11]: 100
- Crabgrass, Large plant response rating [1, 12]: 100
- Plant response rating, Crabgrass, Large [1]: 100
- Plant response rating, Crabgrass, Large [2, 14]: 100
- Crabgrass, Large plant response rating [2, 15]: 100
- Plant response rating, Ragweed [3, 19]: 90
- Plant response rating, Ragweed ([3]; Postemergence, 62 g ai/ha): 70
- Plant response rating, Corn [4, 14]: 20
- Corn plant response rating [4, 15]: 50
- Plant response rating, Oat, Wild [5, 19]: 5
- Plant response rating, Oat, Wild ([5]; Postemergence, 62 g ai/ha): 5
- Plant response rating, Wheat [6, 19]: 5
- Plant response rating, Wheat ([6]; Postemergence, 62 g ai/ha): 0
- Plant response rating, Rice [7]: 0
- Johnsongrass plant response rating [8, 17]: 0
- Johnsongrass plant response rating [8, 11]: 25
- Johnsongrass plant response rating [8, 12]: 80
- Plant response rating, Johnsongrass [8]: 5
- Kochia plant response rating [9, 18]: 60
- Plant response rating, Kochia [9, 19]: 95
- Plant response rating, Kochia ([9]; Postemergence, 62 g ai/ha): 90
- Lambsquarters plant response rating [10, 17]: 50
- Lambsquarters plant response rating [10, 11]: 100
- Lambsquarters plant response rating [10, 12]: 100
- Plant response rating, Lambsquarters [10]: 100

SMILES: N#Cc1cn(-c2c(Br)cccc2Oc2ncc(Cl)cn2)nn1 [Compound 116]
- Crabgrass, Large plant response rating [1, 17]: 5
- Crabgrass, Large plant response rating [1, 11]: 100
- Crabgrass, Large plant response rating [1, 12]: 100
- Plant response rating, Crabgrass, Large [1]: 100
- Plant response rating, Crabgrass, Large [2, 20]: 100
- Plant response rating (0 to 100), Ragweed [3, 21]: 5
- Plant response rating, Ragweed [3, 19]: 70
- Plant response rating, Ragweed ([3]; Postemergence, 62 g ai/ha): 25
- Plant response rating, Corn [4, 20]: 30
- Plant response rating (0 to 100), Oat, Wild [5, 21]: 5
- Plant response rating, Oat, Wild [5, 19]: 15
- Plant response rating, Oat, Wild ([5]; Postemergence, 62 g ai/ha): 5
- Plant response rating (0 to 100), Wheat [6, 21]: 0
- Plant response rating, Wheat [6, 19]: 5
- Plant response rating, Wheat ([6]; Postemergence, 62 g ai/ha): 5
- Plant response rating, Rice [7]: 0
- Johnsongrass plant response rating [8, 17]: 0
- Johnsongrass plant response rating [8, 11]: 55
- Johnsongrass plant response rating [8, 12]: 70
- Plant response rating, Johnsongrass [8]: 25
- Plant response rating (0 to 100), Kochia [9, 21]: 70
- Plant response rating, Kochia [9, 19]: 95
- Plant response rating, Kochia ([9]; Postemergence, 62 g ai/ha): 90
- Lambsquarters plant response rating [10, 17]: 10
- Lambsquarters plant response rating [10, 11]: 85
- Lambsquarters plant response rating [10, 12]: 100
- Plant response rating, Lambsquarters [10]: 95

— patent publication US9695155B2, “Herbicidal substituted pyrimidinyloxy benzene compounds” (E. I. DU PONT DE NEMOURS AND COMPANY, priority 2013, dated 2017)
